In patent US8097752B2, “Antiprotozoal ring-substituted phospholipids” (priority 2002, dated 2012):

Tests used:
cutaneous leishmaniasis = conditions: phase I study; 100-150 mg for 3 weeks; cited from earlier work
[1] = system: promastigote forms of Leishmania donovani; assay: In vitro antileishmanial activity in promastigote cultures (MTT), L. donovani; type: cell-based, Leishmania donovani MHOM/IN/80/DD8/LEM 703; conditions: Leishmania donovani, promastigotes, 72 h incubation, mean ± SEM, n = 3-4 (each run in duplicate), read-out: IC50 (μM) L. donovani MON 703
Description: (§1) Determination of in Vitro Antileishmanial Activity in Promastigote Cultures.
(§2) The effect of the phospholipids according to the present invention against the promastigote forms of Leishmania donovani and Leishmania infantum was evaluated using an MTT (3-(4,5-dimethylthiazol-2yl)-2,5-diphenyltetrazolium bromide)-based enzymatic method as a marker of cell viability and was compared with that of the ether phospholipid hexadecylphosphocholine (Miltefosine). Thus, promastigotes of Leishmania infantum MHOM/TN/80/IPT1/LEM 235 and Leishmania donovani MHOM/IN/80/DD8/LEM 703, were grown in RPMI 1640 supplemented with 10% FCS, L. glutamine and antibiotics, at 26° C. All new compounds were dissolved in DMSO to a final concentration of 9.625 mM and linear 3-fold dilutions were done in the culture medium. 25 μL of promastigote culture at 5×10^5 cells/mL were cultured in a 96-well flat-bottom plate (Costar 3696), and incubated with 25 μL of different drug concentrations at 26° C. After 72 h, 10 μL of 5 mg/mL MTT in PBS (SIGMA M2128) were added and incubation was continued for 3 h. The reaction was stopped by the addition of 50 μL of 50% isopropanol, 10% SDS under gentle shacking for 30 min. Absorbance was measured at 550 nm with reference at 620 nm in a TRITURUS microplate reader.

[2] = system: promastigote forms of Leishmania infantum; assay: In vitro antileishmanial activity in promastigote cultures (MTT), L. infantum; type: cell-based, Leishmania infantum MHOM/TN/80/IPT1/LEM 235; conditions: Leishmania infantum, promastigotes, 72 h incubation, mean ± SEM, n = 3-4 (each run in duplicate), read-out: IC50 (μM) L. infantum MON 235
Description: as §1, §2

visceral leishmaniasis = conditions: cited from earlier work

For `CCCCCCCCCCCCCCCCOP(=O)([O-])OCC[N+](C)(C)C` [Miltefosine, hexadecylphosphocholine], the cure rate (cutaneous leishmaniasis) is listed as 94%, the IC50 [1] is listed as 23.7 ± 4.07 µM and the IC50 [2] is listed as 22.6 ± 3.6 µM. For the same compound, the “effectiveness in treating mice infected with visceral leishmaniasis” value (visceral leishmaniasis; mice) was “highly effective” and the “effectiveness of oral treatment relative to subcutaneous administration of pentostam” value (visceral leishmaniasis; oral miltefosine vs subcutaneous pentostam, mice infected with visceral leishmaniasis) was 600 fold.
